In patent US20240239861A1, “GLUCAGON-RECEPTOR SELECTIVE POLYPEPTIDES AND METHODS OF USE THEREOF” (i2O Therapeutics, Inc., priority 2016, published 2024):
Read-outs that look alike come from different tables or passages of the source. *1 amine or outer side, *2 acyl side, *3 side chain or, on linkers, in order; H or OH if unused. Where a SMILES comes first, the peptide text is derived from it. Side-chain parts run from the residue outwards. [ ]: non-standard residue; d: D form. The star is where a group is joined. γGlu = O=C(O)[C@H](CCC(=O)[*:2])N[*:1]; Palmitoyl = CCCCCCCCCCCCCCCC(=O)*; Aib = CC(C)(N)C(=O)O

Experiments:
[1] = Clearance following intravenous infusion, acylated peptides (1-hour infusion, 0.033 mg/kg); settings: rat, in vivo
human GLP-1R = human GLP-1R (Homo sapiens, UniProt P43220); experiment: Peptide-receptor mediated cAMP accumulation (LANCE Ultra cAMP) in CHO-K1 cells transfected with human GLP-1R; format: cell-based
human GLP-1R, sequence (P43220 24-463): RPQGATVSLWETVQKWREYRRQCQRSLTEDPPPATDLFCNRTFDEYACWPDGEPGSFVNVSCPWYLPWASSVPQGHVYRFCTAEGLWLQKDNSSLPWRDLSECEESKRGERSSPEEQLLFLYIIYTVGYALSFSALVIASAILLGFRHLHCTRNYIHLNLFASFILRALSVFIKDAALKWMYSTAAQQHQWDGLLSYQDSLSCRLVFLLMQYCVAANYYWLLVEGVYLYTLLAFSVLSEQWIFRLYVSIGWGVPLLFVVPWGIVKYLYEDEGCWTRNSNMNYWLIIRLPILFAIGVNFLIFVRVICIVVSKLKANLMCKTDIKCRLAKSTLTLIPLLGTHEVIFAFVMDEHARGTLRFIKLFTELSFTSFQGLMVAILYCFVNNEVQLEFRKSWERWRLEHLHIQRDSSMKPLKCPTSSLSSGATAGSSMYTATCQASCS

human GCGR = human GCGR (Homo sapiens, UniProt P47871); experiment: Peptide-receptor mediated cAMP accumulation (LANCE Ultra cAMP) in CHO-K1 cells transfected with human GCGR; format: cell-based
human GCGR, sequence (P47871 26-477): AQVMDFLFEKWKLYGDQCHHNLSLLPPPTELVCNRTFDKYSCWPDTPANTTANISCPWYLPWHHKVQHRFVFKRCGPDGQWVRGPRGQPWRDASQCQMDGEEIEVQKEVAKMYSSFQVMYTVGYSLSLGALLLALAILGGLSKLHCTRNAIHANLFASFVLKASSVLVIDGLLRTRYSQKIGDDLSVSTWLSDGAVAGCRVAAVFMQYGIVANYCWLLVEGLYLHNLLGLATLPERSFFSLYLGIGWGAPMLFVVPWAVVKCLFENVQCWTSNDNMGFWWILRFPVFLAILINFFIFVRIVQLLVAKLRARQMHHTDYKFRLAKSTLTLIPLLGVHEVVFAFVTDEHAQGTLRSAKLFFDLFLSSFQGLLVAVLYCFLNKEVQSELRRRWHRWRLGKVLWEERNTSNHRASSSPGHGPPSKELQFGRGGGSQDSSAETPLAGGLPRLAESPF

in vivo = settings: male, rat
[2] = Solubility in water or saline at room temperature, visual inspection; format: physicochemical; settings: Solubility in water mg/ml
Text: Samples were visually inspected for clarity of the sample, any appearance of turbidity or haziness.

[3] = Table 7, GLP-1R, read-out: GLP-1R pEC50 (converted)
[4] = read-out: GluR pEC50 (converted)

Row | Compound | clearance [1] [mL/min/kg] | half-life [1] [h] | EC50 (human GLP-1R; [3]) [nM] | EC50 (human GCGR; [4]) [nM] | clearance (in vivo) [mL/min/kg] | solubility [2] [mg/mL] | EC50 (human GLP-1R; hGLP1 pEC50 (cAMP mean (n = 3): 11 point curve starting at 1 nM, Table 3)) [nM] | EC50 (human GLP-1R; hGLP1 pEC50 (cAMP) mean (n = 3): 11 point curve starting at 1 nM, Table 2B) [nM] | EC50 (human GCGR; Table 2B) [nM] | hGCGR pEC50 (cAMP mean (n = 3): 11 point curve starting at 1 nM) (human GCGR; Table 3)
1 | CCCCCCCCCCCCCCCC(=O)N[C@@H](CCC(=O)NCCCC[C@H](NC(=O)[C@H](CO)NC(=O)[C@H](CO)NC(=O)[C@@H]1CCCN1C(=O)[C@H](CCC(=O)O)NC(=O)[C@H](CC(=O)O)NC(=O)[C@H](CCC(=O)O)NC(=O)[C@H](CC(C)C)NC(=O)[C@H](Cc1c[nH]c2ccccc12)NC(=O)[C@H](CCCCN)NC(=O)[C@@H](NC(=O)[C@H](Cc1ccccc1)NC(=O)[C@H](CCC(=O)O)NC(=O)[C@H](CCC(N)=O)NC(=O)[C@H](C)NC(=O)[C@H](CCCNC(=N)N)NC(=O)[C@H](C)NC(=O)[C@H](CO)NC(=O)[C@H](CC(=O)O)NC(=O)[C@H](CC(C)C)NC(=O)[C@H](Cc1ccc(O)cc1)NC(=O)[C@H](CCCCN)NC(=O)[C@H](CO)NC(=O)[C@H](Cc1ccc(O)cc1)NC(=O)[C@H](CC(=O)O)NC(=O)[C@H](CO)NC(=O)[C@@H](NC(=O)[C@H](Cc1ccccc1)NC(=O)[C@@H](NC(=O)CNC(=O)[C@H](Cc1c[nH]cn1)NC(=O)[C@H](CO)NC(=O)[C@@H](N)Cc1ccc(O)cc1)[C@@H](C)O)[C@@H](C)O)C(C)C)C(=O)N[C@@H](C)C(=O)N1CCC[C@H]1C(=O)N1CCC[C@H]1C(=O)N1CCC[C@H]1C(=O)N[C@@H](CO)C(N)=O)C(=O)O [Compound B41] (H-YSHGTFTSDYSKYLDSARAQEFVKWLEDEPSSK([γGlu-Palmitoyl])APPPS-NH2) | 4.86 | 1.09 | > 1000 | 0.0251 | – | – | – | – | – | –
2 | CC(C)C[C@H](NC(=O)[C@H](Cc1ccc(O)cc1)NC(=O)[C@H](CCCCN)NC(=O)[C@H](CO)NC(=O)[C@H](Cc1ccc(O)cc1)NC(=O)[C@H](CC(=O)O)NC(=O)[C@H](CO)NC(=O)[C@@H](NC(=O)[C@H](Cc1ccccc1)NC(=O)[C@@H](NC(=O)CNC(=O)[C@H](Cc1c[nH]cn1)NC(=O)[C@H](CO)NC(=O)[C@@H](N)Cc1ccc(O)cc1)[C@@H](C)O)[C@@H](C)O)C(=O)N[C@@H](CC(=O)O)C(=O)N[C@@H](CCCCNC(=O)COCCOCCNC(=O)COCCOCCNC(=O)CC[C@H](NC(=O)CCCCCCCCCCCCCCCCC(=O)O)C(=O)O)C(=O)N[C@@H](CCCCN)C(=O)N[C@@H](CO)C(=O)N[C@@H](C)C(=O)N[C@@H](CCC(N)=O)C(=O)N[C@@H](CCC(=O)O)C(=O)N[C@@H](Cc1ccccc1)C(=O)N[C@H](C(=O)NC(C)(C)C(=O)N[C@@H](Cc1c[nH]c2ccccc12)C(=O)N[C@@H](CC(C)C)C(=O)N[C@@H](CCC(=O)O)C(=O)N[C@@H](CC(=O)O)C(=O)N[C@@H](CCC(=O)O)C(=O)N1CCC[C@H]1C(=O)N[C@@H](CO)C(=O)N[C@@H](CO)C(=O)NCC(=O)N[C@@H](C)C(=O)N1CCC[C@H]1C(=O)N1CCC[C@H]1C(=O)N1CCC[C@H]1C(=O)N[C@@H](CO)C(=O)O)C(C)C [Compound B15] | 0.457 | 9.34 | > 1000 | 0.126 | – | – | – | – | – | –
3 | CCCCCCCCCCCCCCCC(=O)N[C@@H](CCC(=O)NCCCC[C@H](NC(=O)[C@H](CO)NC(=O)[C@H](CO)NC(=O)[C@@H]1CCCN1C(=O)[C@H](CCC(=O)O)NC(=O)[C@H](CC(=O)O)NC(=O)[C@H](CCC(=O)O)NC(=O)[C@H](CC(C)C)NC(=O)[C@H](Cc1c[nH]c2ccccc12)NC(=O)C(C)(C)NC(=O)[C@@H](NC(=O)[C@H](Cc1ccccc1)NC(=O)[C@H](CCC(=O)O)NC(=O)[C@H](CCC(N)=O)NC(=O)[C@H](C)NC(=O)[C@H](CO)NC(=O)[C@H](CCCCN)NC(=O)C(C)(C)NC(=O)[C@H](CC(=O)O)NC(=O)[C@H](CC(C)C)NC(=O)[C@H](Cc1ccc(O)cc1)NC(=O)[C@H](CCCCN)NC(=O)[C@H](CO)NC(=O)[C@H](Cc1ccc(O)cc1)NC(=O)[C@H](CC(=O)O)NC(=O)[C@H](CO)NC(=O)[C@@H](NC(=O)[C@H](Cc1ccccc1)NC(=O)[C@@H](NC(=O)CNC(=O)[C@H](Cc1c[nH]cn1)NC(=O)[C@H](CO)NC(=O)[C@@H](N)Cc1ccc(O)cc1)[C@@H](C)O)[C@@H](C)O)C(C)C)C(=O)N[C@@H](C)C(=O)N1CCC[C@H]1C(=O)N1CCC[C@H]1C(=O)N1CCC[C@H]1C(=O)N[C@@H](CO)C(=O)O)C(=O)O [Compound B9] | 0.594 | 4.98 | > 1000 | 0.00794 | – | – | – | – | – | –
4 | CCCCCCCCCCCCCCCC(=O)N[C@@H](CCC(=O)NCCCC[C@H](NC(=O)[C@H](CO)NC(=O)[C@H](CCCCN)NC(=O)[C@@H]1CCCN1C(=O)[C@H](CCC(=O)O)NC(=O)[C@H](CC(=O)O)NC(=O)[C@H](CCC(=O)O)NC(=O)[C@H](CC(C)C)NC(=O)[C@H](Cc1c[nH]c2ccccc12)NC(=O)[C@H](CCCCN)NC(=O)[C@@H](NC(=O)[C@H](Cc1ccccc1)NC(=O)[C@H](CCC(=O)O)NC(=O)[C@H](CCC(N)=O)NC(=O)[C@H](C)NC(=O)[C@H](CCCNC(=N)N)NC(=O)[C@H](C)NC(=O)[C@H](C)NC(=O)[C@H](CC(=O)O)NC(=O)[C@H](CC(C)C)NC(=O)[C@H](Cc1ccc(O)cc1)NC(=O)[C@H](CCCCN)NC(=O)[C@H](CO)NC(=O)[C@H](Cc1ccc(O)cc1)NC(=O)[C@H](CC(=O)O)NC(=O)[C@H](CO)NC(=O)[C@@H](NC(=O)[C@H](Cc1ccccc1)NC(=O)[C@@H](NC(=O)CNC(=O)[C@H](CCC(N)=O)NC(=O)[C@H](CO)NC(=O)[C@@H](N)Cc1ccc(O)cc1)[C@@H](C)O)[C@@H](C)O)C(C)C)C(=O)N[C@@H](CO)C(=O)N1CCC[C@H]1C(=O)N1CCC[C@H]1C(=O)N1CCC[C@H]1C(=O)N[C@@H](CO)C(N)=O)C(=O)O [Compound B33] (H-YSQGTFTSDYSKYLDAARAQEFVKWLEDEPKSK([γGlu-Palmitoyl])SPPPS-NH2) | 6.96 | 0.429 | > 1000 | 0.0251 | – | – | – | – | – | –
5 | CCCCCCCCCCCCCCCC(=O)N[C@@H](CCC(=O)NCCCC[C@H](NC(=O)[C@H](CC(=O)O)NC(=O)[C@H](CC(C)C)NC(=O)[C@H](Cc1ccc(O)cc1)NC(=O)[C@H](CCCCN)NC(=O)[C@H](CO)NC(=O)[C@H](Cc1ccc(O)cc1)NC(=O)[C@H](CC(=O)O)NC(=O)[C@H](CO)NC(=O)[C@@H](NC(=O)[C@H](Cc1ccccc1)NC(=O)[C@@H](NC(=O)CNC(=O)[C@H](Cc1c[nH]cn1)NC(=O)[C@H](CO)NC(=O)[C@@H](N)Cc1ccc(O)cc1)[C@@H](C)O)[C@@H](C)O)C(=O)N[C@@H](CCCCN)C(=O)N[C@@H](Cc1ccc(O)cc1)C(=O)N[C@@H](C)C(=O)N[C@@H](CCC(N)=O)C(=O)N[C@@H](CCC(=O)O)C(=O)N[C@@H](Cc1ccccc1)C(=O)N[C@H](C(=O)NC(C)(C)C(=O)N[C@@H](Cc1c[nH]c2ccccc12)C(=O)N[C@@H](CC(C)C)C(=O)N[C@@H](CCC(=O)O)C(=O)N[C@@H](CC(=O)O)C(=O)N[C@@H](CCC(=O)O)C(=O)N1CCC[C@H]1C(=O)N[C@@H](CO)C(=O)N[C@@H](CO)C(=O)NCC(=O)N[C@@H](C)C(=O)N1CCC[C@H]1C(=O)N1CCC[C@H]1C(=O)N1CCC[C@H]1C(=O)N[C@@H](CO)C(=O)O)C(C)C)C(=O)O [Compound B3] | 18.8 | 1.79 | > 1000 | 0.00398 | – | – | – | – | – | –
6 | CC(C)C[C@H](NC(=O)[C@H](Cc1c[nH]c2ccccc12)NC(=O)[C@H](CCCCNC(=O)COCCOCCNC(=O)COCCOCCNC(=O)CC[C@H](NC(=O)CCCCCCCCCCCCCCCCC(=O)O)C(=O)O)NC(=O)[C@@H](NC(=O)[C@H](Cc1ccccc1)NC(=O)[C@H](CCC(=O)O)NC(=O)[C@H](CCC(N)=O)NC(=O)[C@H](C)NC(=O)[C@H](CO)NC(=O)[C@H](CCCCN)NC(=O)C(C)(C)NC(=O)[C@H](CC(=O)O)NC(=O)[C@H](CC(C)C)NC(=O)[C@H](Cc1ccc(O)cc1)NC(=O)[C@H](CCCCN)NC(=O)[C@H](CO)NC(=O)[C@H](Cc1ccc(O)cc1)NC(=O)[C@H](CC(=O)O)NC(=O)[C@H](CO)NC(=O)[C@@H](NC(=O)[C@H](Cc1ccccc1)NC(=O)[C@@H](NC(=O)CNC(=O)[C@H](Cc1c[nH]cn1)NC(=O)[C@H](CO)NC(=O)[C@@H](N)Cc1ccc(O)cc1)[C@@H](C)O)[C@@H](C)O)C(C)C)C(=O)N[C@@H](CCC(=O)O)C(=O)N[C@@H](CC(=O)O)C(=O)N[C@@H](CCC(=O)O)C(=O)N1CCC[C@H]1C(=O)N[C@@H](CO)C(=O)N[C@@H](CO)C(=O)NCC(=O)N[C@@H](C)C(=O)N1CCC[C@H]1C(=O)N1CCC[C@H]1C(=O)N1CCC[C@H]1C(=O)N[C@@H](CO)C(=O)O [Compound B14] | 2.65 | 13.9 | > 1000 | 0.501 | – | – | – | – | – | –
7 | CC(C)C[C@H](NC(=O)[C@H](Cc1ccc(O)cc1)NC(=O)[C@H](CCCCN)NC(=O)[C@H](CO)NC(=O)[C@H](Cc1ccc(O)cc1)NC(=O)[C@H](CC(=O)O)NC(=O)[C@H](CO)NC(=O)[C@@H](NC(=O)[C@H](Cc1ccccc1)NC(=O)[C@@H](NC(=O)CNC(=O)[C@H](Cc1c[nH]cn1)NC(=O)[C@H](CO)NC(=O)[C@@H](N)Cc1ccc(O)cc1)[C@@H](C)O)[C@@H](C)O)C(=O)N[C@@H](CC(=O)O)C(=O)NC(C)(C)C(=O)N[C@@H](C)C(=O)N[C@@H](CCCNC(=N)N)C(=O)N[C@@H](C)C(=O)N[C@@H](CCC(N)=O)C(=O)N[C@@H](CCC(=O)O)C(=O)N[C@@H](Cc1ccccc1)C(=O)N[C@H](C(=O)NC(C)(C)C(=O)N[C@@H](Cc1c[nH]c2ccccc12)C(=O)N[C@@H](CC(C)C)C(=O)N[C@@H](CCC(=O)O)C(=O)N[C@@H](CC(=O)O)C(=O)N[C@@H](CCC(=O)O)C(=O)N1CCC[C@H]1C(=O)N[C@@H](CO)C(=O)N[C@@H](CO)C(=O)NCC(=O)N[C@@H](C)C(=O)N1CCC[C@H]1C(=O)N1CCC[C@H]1C(=O)N1CCC[C@H]1C(=O)N[C@@H](CO)C(=O)O)C(C)C [Compound A103] (H-YSHGTFTSDYSKYLD[Aib]ARAQEFV[Aib]WLEDEPSSGAPPPS-OH; N-terminus assumed) | – | – | – | – | 28.5 | > 200 | > 1 | > 1 | 0.00126 | 11.9
